Assay [1] concerns the target T1, Mycobacterium tuberculosis InhA (Mycobacterium tuberculosis, UniProt P9WGR1). Nature of the assay: STD 1H NMR. The class given is binding. To be noted: NADH-bound InhA; co-crystallised with ligands.
The target in assay [2] is T1, Mycobacterium tuberculosis InhA. Nature of the assay: InhA biochemical inhibition assay. To be noted: for IC50: read-out: InhA pIC50 ^[a][e] (% 500 μM) (converted); for InhA pIC50 ^[a][e] (% 500 μM): tested up to 1 mM. The source says:
InhA biochemical inhibition assay on Mycobacterium tuberculosis InhA

Assay [3] shares this target. Description: surface plasmon resonance, equilibrium. To be noted: read-out: SPR pK d ^[f] (converted). The class given is binding. The text has this:
surface plasmon resonance, equilibrium on Mycobacterium tuberculosis InhA
Background: SPR reads the build-up and loss of mass on a sensor chip optically.

The mark [4] stands for this setting: published lead, not marked as earlier data in table.

T1 sequence (P9WGR1 whole entry, looked up): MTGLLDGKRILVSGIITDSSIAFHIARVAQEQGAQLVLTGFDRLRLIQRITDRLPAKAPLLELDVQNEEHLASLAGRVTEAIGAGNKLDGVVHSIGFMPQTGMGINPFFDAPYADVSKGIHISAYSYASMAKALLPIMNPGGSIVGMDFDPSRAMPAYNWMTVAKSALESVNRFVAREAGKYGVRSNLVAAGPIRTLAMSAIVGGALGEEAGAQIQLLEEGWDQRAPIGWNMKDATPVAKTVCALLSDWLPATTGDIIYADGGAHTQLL

With `NC(=O)C1=CN([C@@H]2O[C@H](COP(=O)(O)OP(=O)(O)OC[C@H]3O[C@@H](n4cnc5c(N)ncnc54)[C@H](O)[C@@H]3O)[C@@H](O)[C@H]2O)C=CC1` [NADH], the “STD 1H NMR” value in assay [1] is reported as “NADH binding was also observed in the STD‐NMR spectra”.
Take `OCc1ccc(Cn2cccn2)cc1` [compound 4, 4]: in assay [2], the IC50 is more than 1000 µM.
Consider `Cc1cc(N)n(Cc2ccccc2)n1` [compound 9, 9], for which the “InhA pIC50 ^[a][e] (% 500 μM)” value in assay [2] is on record as 3.4±0.23. Besides, in assay [3], the Kd is 501 µM.
In the case of `CCOC(=O)[C@@H]1CCc2nc(C)sc2C1` [compound 22, 22], the IC50 in assay [2] is 794 µM.
On the same count and under the same terms, next, `O=C(CCc1cccnc1)NC1CCN(c2ncccn2)CC1` [compound 36, 36]: more than 1000 µM.
Regarding `O=C(NCc1cccnc1)NC1CCN(c2ncccn2)CC1` [compound 37, 37], the “InhA pIC50 ^[a][e] (% 500 μM)” value in assay [2] was determined as 4.1±0.06.
Regarding `Cc1cncc(CNC(=O)NC2CCCCC2)c1` [compound 38, 38], the IC50 in assay [2] was 100 µM. In addition, the Kd in assay [3] is 631 µM.
`Cc1cncc(CNC(=O)NC2CCN(c3ncccn3)CC2)c1` [compound 39, 39]: in assay [2], the “InhA pIC50 ^[a][e] (% 500 μM)” value was 5.0±0.14. The Kd in assay [3] is 20 µM.
Turning to `Cc1cc(=O)c(-c2ccccc2)c(C)[nH]1` [compound 40, 40], the IC50 in assay [2] was 15.8 µM. Moreover, the Kd in assay [3] was 25.1 µM.
On the same counts, the results for `Cc1cc(=O)c(C2CCN(c3ncccn3)CC2)c(C)[nH]1` [compound 41, 41] are 1 µM and 6.31 µM.
As to `O=c1[nH]c(CC2CCCCC2)cc(O)c1C1CCN(c2ncccn2)CC1` [compound 42, 42], in assay [2], the “InhA pIC50 ^[a][e] (% 500 μM)” value came out at 6.5±0.03.
Consider `CC(C)Cc1cc(O)c(C2CCN(c3ncccn3)CC2)c(=O)[nH]1` [compound 43, 43], for which the IC50 in assay [2] is 6.31 µM. Besides, the Kd in assay [3] was 200 µM.
For `Cc1cc(C)n(Cc2ccc(C(=O)NCc3ccc(F)cc3Cl)cc2)n1` [compound 44, 44], the “InhA pIC50 ^[a][e] (% 500 μM)” value in assay [2] (setting [4]) is listed as 6.9±0.07.
Consider `Cc1ccn(C(C)c2nnc(Nc3ccn(Cc4c(F)cccc4Cl)n3)s2)n1` (stereo not shown) [compound 45, 45], for which, in assay [2] (setting [4]), the “InhA pIC50 ^[a][e] (% 500 μM)” value worked out at 8.1±0.27. For the same compound, the Kd in assay [3] is 0.01 µM.
Consider `Cc1cc(N)n(Cc2ccc(C(=O)NCc3ccc(F)cc3Cl)cc2)n1` [compound 46, 46], for which the “InhA pIC50 ^[a][e] (% 500 μM)” value in assay [2] was 6.3±0.25. Also, in assay [3], the Kd is 0.501 µM.
Take `Cc1cc(N)n(Cc2nnc(Nc3ccn(Cc4c(F)cccc4Cl)n3)s2)n1` [compound 47, 47]: the “InhA pIC50 ^[a][e] (% 500 μM)” value in assay [2] came out at 7.3±0.20. Besides, the Kd in assay [3] was 0.0794 µM.
